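Each compound was tested at five concentrations against cells in 96-well plates for 48 hours. GI50 = concentration required for 50% inhibition of growth.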 Active and inactive are the calls of the source. Rule as the data show it: active = GI50 up to about 1.1 µM and inactive = higher.
What was measured:
Test in all cases: NCI anticancer screen, dose series, 48 h
A549 = tested on: A549
CCRF-CEM = tested on: CCRF-CEM
HCC 2998 = tested on: HCC 2998
HOP-62 = tested on: HOP-62
Hs-578T = tested on: Hs-578T
MDA-N = tested on: MDA-N
MOLT-4 = tested on: MOLT-4
Malme-3M = tested on: Malme-3M
NCI-H23 = tested on: NCI-H23
NCI-H460 = tested on: NCI-H460
NCI-H522 = tested on: NCI-H522
OVCAR-3 = tested on: OVCAR-3
OVCAR-8 = tested on: OVCAR-8
SF-295 = tested on: SF-295
SF-539 = tested on: SF-539
SK-MEL-5 = tested on: SK-MEL-5
SK-OV-3 = tested on: SK-OV-3
U-251 = tested on: U-251
UACC-62 = tested on: UACC-62
SR = tested on: SR

Measured: GI50

NN(CC(=O)O)CC(=O)O
inactive: A549 > 100 µM | CCRF-CEM > 100 µM | HCC 2998 > 100 µM | HOP-62 > 100 µM | Hs-578T > 100 µM | MDA-N > 100 µM | MOLT-4 > 100 µM | Malme-3M > 100 µM | NCI-H23 > 100 µM | NCI-H460 > 100 µM | NCI-H522 > 100 µM | OVCAR-3 > 100 µM | OVCAR-8 > 100 µM | SF-295 > 100 µM | SF-539 > 100 µM | SK-MEL-5 > 100 µM | SK-OV-3 > 100 µM | U-251 > 100 µM | UACC-62 > 100 µM

CNC(=O)CCCN(C)C(=O)CCCCC(=O)N(C)C
inactive: A549 > 57.1 µM | CCRF-CEM 40.5 µM | HCC 2998 > 51.1 µM | HOP-62 > 100 µM | Hs-578T > 56.9 µM | MDA-N > 60.8 µM | MOLT-4 41.6 µM | Malme-3M 33.5 µM | NCI-H23 > 60.1 µM | NCI-H460 > 56 µM | NCI-H522 > 58.6 µM | OVCAR-3 > 92.3 µM | OVCAR-8 > 60.8 µM | SF-295 > 59.2 µM | SF-539 > 59.8 µM | SK-MEL-5 36.6 µM | SK-OV-3 > 61.5 µM | U-251 > 58.2 µM | UACC-62 > 57.4 µM

CC1(C)COC(c2cccc(C(=O)c3ccccc3)c2)=N1
inactive: A549 55.2 µM | CCRF-CEM 39.4 µM | HCC 2998 57.9 µM | HOP-62 > 100 µM | MDA-N 41 µM | MOLT-4 24.5 µM | Malme-3M 46.3 µM | NCI-H23 34.1 µM | NCI-H460 59.4 µM | NCI-H522 16.8 µM | OVCAR-3 24.7 µM | OVCAR-8 48.5 µM | SF-295 40.7 µM | SK-MEL-5 17.1 µM | SK-OV-3 > 100 µM | SR 32.3 µM | U-251 70 µM | UACC-62 41.9 µM

CCOC(=O)C(=Cc1ccc(Oc2ccccc2)cc1)C(=O)OCC
inactive: A549 8.45 µM | CCRF-CEM 2.03 µM | HCC 2998 10.6 µM | HOP-62 3.28 µM | MDA-N 4.41 µM | MOLT-4 1.92 µM | Malme-3M 2.56 µM | NCI-H23 2.58 µM | NCI-H460 18.2 µM | NCI-H522 4.22 µM | OVCAR-3 6.38 µM | OVCAR-8 2.19 µM | SF-295 5.13 µM | SF-539 3.84 µM | SK-MEL-5 1.98 µM | SK-OV-3 7.05 µM | SR 2.52 µM | U-251 3.35 µM | UACC-62 1.63 µM

O=C1C=C(c2ccccc2)OC1C1Sc2ccccc2NC1=O (stereo not drawn)
inactive: A549 3.06 µM | CCRF-CEM 6.43 µM | HCC 2998 5.69 µM | Hs-578T 6.11 µM | MDA-N 4.48 µM | MOLT-4 10.6 µM | Malme-3M 24.3 µM | NCI-H23 3.77 µM | NCI-H460 2.74 µM | NCI-H522 6.85 µM | OVCAR-3 3.97 µM | OVCAR-8 9.31 µM | SF-295 5.98 µM | SF-539 5.38 µM | SK-MEL-5 9.51 µM | SK-OV-3 8.09 µM | U-251 4.01 µM | UACC-62 11.9 µM
active: HOP-62 1.04 µM

CCOC(=O)c1nnsc1NN
inactive: A549 62.5 µM | CCRF-CEM 18.8 µM | HCC 2998 > 100 µM | HOP-62 > 100 µM | Hs-578T > 100 µM | MDA-N 72.6 µM | MOLT-4 34 µM | NCI-H23 > 100 µM | NCI-H460 55.8 µM | NCI-H522 > 100 µM | OVCAR-3 > 100 µM | OVCAR-8 > 100 µM | SF-295 > 100 µM | SF-539 > 100 µM | SK-MEL-5 > 100 µM | SK-OV-3 > 100 µM | U-251 > 100 µM | UACC-62 > 100 µM

COc1ccccc1/C=C\c1cnnc2ccccc12
inactive: A549 > 10 µM | CCRF-CEM 6.59 µM | HCC 2998 > 10 µM | HOP-62 > 10 µM | Hs-578T > 10 µM | MDA-N 3.33 µM | MOLT-4 6.24 µM | Malme-3M > 10 µM | NCI-H23 > 10 µM | NCI-H460 > 10 µM | NCI-H522 > 10 µM | OVCAR-3 > 10 µM | OVCAR-8 > 10 µM | SF-295 > 10 µM | SF-539 > 10 µM | SK-MEL-5 6.71 µM | SK-OV-3 > 10 µM | U-251 > 10 µM | UACC-62 > 10 µM

COc1ccc2[nH]c3c([N+](=O)[O-])ccc(Cl)c3c(=O)c2c1
inactive: A549 62.4 µM | CCRF-CEM 2.12 µM | HCC 2998 28.9 µM | HOP-62 26.7 µM | Hs-578T 30.3 µM | MDA-N 21.2 µM | MOLT-4 3.52 µM | Malme-3M 19.6 µM | NCI-H23 24.8 µM | NCI-H460 29 µM | NCI-H522 19 µM | OVCAR-3 16.8 µM | OVCAR-8 22 µM | SF-295 38 µM | SF-539 17.9 µM | SK-MEL-5 23.9 µM | SK-OV-3 > 63.1 µM | U-251 25.4 µM | UACC-62 18 µM

COC(=O)[C@H](Cc1ccccc1)NC(=O)OCC1OC(n2cc(C)c(=O)[nH]c2=O)CC1N=[N+]=[N-] (stereo partly drawn)
active: Hs-578T 0.0617 µM
inactive: A549 > 100 µM | CCRF-CEM > 100 µM | HCC 2998 > 100 µM | HOP-62 > 100 µM | MDA-N > 100 µM | MOLT-4 > 100 µM | Malme-3M > 100 µM | NCI-H23 > 100 µM | NCI-H460 > 100 µM | NCI-H522 > 100 µM | OVCAR-3 > 100 µM | OVCAR-8 > 100 µM | SF-295 > 100 µM | SK-MEL-5 4.12 µM | SK-OV-3 > 100 µM | U-251 > 100 µM | UACC-62 > 100 µM

C[C@]12CC[C@H]3[C@@H](CCC4=CC(=O)CC[C@@]43C)[C@@H]1CC[C@@H]2OC(=O)c1cccc2c(=O)c3ccccc3[nH]c12
inactive: A549 > 100 µM | CCRF-CEM 58.1 µM | HCC 2998 25.2 µM | HOP-62 63.5 µM | Hs-578T 12.1 µM | MDA-N 42.1 µM | MOLT-4 32.1 µM | Malme-3M 47.3 µM | NCI-H23 > 100 µM | NCI-H460 46.8 µM | NCI-H522 > 100 µM | OVCAR-3 > 100 µM | OVCAR-8 > 100 µM | SF-295 > 100 µM | SF-539 > 100 µM | SK-MEL-5 37.4 µM | SK-OV-3 58.5 µM | U-251 61.2 µM | UACC-62 29.4 µM

Cn1c(-c2ccco2)ccc1-c1ccc(C=O)o1
inactive: A549 > 100 µM | CCRF-CEM 27.5 µM | HCC 2998 > 100 µM | HOP-62 > 100 µM | MDA-N 35.7 µM | MOLT-4 23.3 µM | Malme-3M > 100 µM | NCI-H23 94.6 µM | NCI-H460 > 100 µM | NCI-H522 > 100 µM | OVCAR-3 45.6 µM | OVCAR-8 37.3 µM | SF-295 > 100 µM | SF-539 21.5 µM | SK-MEL-5 64.1 µM | SK-OV-3 > 100 µM | SR 31 µM | U-251 39.1 µM | UACC-62 60.3 µM

Cc1ccc(S(=O)(=O)Nn2c(O)c(C#N)c(-c3ccc(Cl)cc3)c(C#N)c2=O)cc1
inactive: A549 > 100 µM | CCRF-CEM > 100 µM | HCC 2998 > 100 µM | HOP-62 > 100 µM | Hs-578T 74.3 µM | MDA-N > 100 µM | MOLT-4 > 100 µM | Malme-3M > 100 µM | NCI-H460 > 100 µM | NCI-H522 > 100 µM | OVCAR-8 > 100 µM | SF-295 > 100 µM | SF-539 > 100 µM | SK-MEL-5 > 100 µM | SK-OV-3 > 100 µM | U-251 > 100 µM | UACC-62 > 100 µM

O=C1CNCCCN2CCN(CCCNCC(=O)Nc3ccc(cc3)S(=O)(=O)c3ccc(cc3)NC(=O)CNCCCN3CCN(CCCNCC(=O)Nc4ccc(cc4)S(=O)(=O)c4ccc(cc4)N1)CC3)CC2
inactive: A549 57.3 µM | CCRF-CEM 1.57 µM | HCC 2998 21.2 µM | HOP-62 25.1 µM | Hs-578T > 45.4 µM | MDA-N 19.3 µM | MOLT-4 19.4 µM | Malme-3M 11.9 µM | NCI-H23 30.3 µM | NCI-H460 10.4 µM | NCI-H522 10.7 µM | OVCAR-3 41.7 µM | OVCAR-8 24.8 µM | SF-295 20.5 µM | SF-539 19.5 µM | SK-MEL-5 25.1 µM | SK-OV-3 > 100 µM | U-251 24.5 µM | UACC-62 32.9 µM

O=C(OCc1ccccc1[N+](=O)[O-])N1c2ccccc2[C@@]23O[C@]24CCC[C@H]3C#C/C=C\C#C[C@H]14
inactive: A549 4.02 µM | CCRF-CEM 4.21 µM | HCC 2998 41.3 µM | Hs-578T 66.5 µM | MDA-N > 100 µM | MOLT-4 1.46 µM | Malme-3M 8.38 µM | NCI-H23 18.7 µM | NCI-H522 78 µM | OVCAR-3 > 100 µM | OVCAR-8 49 µM | SF-295 7.01 µM | SF-539 9.95 µM | SK-MEL-5 12.4 µM | SK-OV-3 > 100 µM | U-251 11 µM | UACC-62 22.7 µM
active: NCI-H460 0.362 µM

COc1cc2c(cc1-c1coc3cc(O)ccc3c1=O)OCO2 [CUNEATIN]
inactive: A549 30.3 µM | CCRF-CEM > 100 µM | HCC 2998 39.7 µM | HOP-62 16.4 µM | Hs-578T 22.2 µM | MDA-N 48.9 µM | MOLT-4 > 100 µM | NCI-H23 19.5 µM | NCI-H460 18.1 µM | NCI-H522 16.4 µM | OVCAR-3 32.6 µM | OVCAR-8 19.3 µM | SF-295 20.4 µM | SF-539 23.4 µM | SK-MEL-5 37.2 µM | SK-OV-3 19.9 µM | U-251 21.5 µM | UACC-62 23.6 µM

From ChEMBL document CHEMBL1201862, “PubChem BioAssay data set” (2004)
